{"source": "patent US11013249B2", "about": "“Compositions for controlled release of volatile compounds” (University of Guelph, priority 2016, dated 2021)", "origin": "cited, not measured here", "conditions": "25° C.; cited from earlier work"}
{"smiles": "O=C(O)C=Cc1ccccc1", "note": "[cinnamic acid]", "values": [{"measurement": "vapor pressure", "value": 0.0047, "unit": "mm Hg"}]}
{"smiles": "Cc1ccc(C(C)C)c(O)c1", "note": "[thymol, Thymol]", "values": [{"measurement": "vapor pressure", "value": 0.0054, "unit": "kPa"}]}
